Measurements published in US20190110476A1, “NOVEL ISOTHIAZOLAMIDES, PROCESSES FOR THEIR PREPARATION AND THEIR USE AS FUNGICIDES” (priority 2014, published 2019).
Marks after values point to notes of the source that are not given here.

Assay: Measurement of LogP values by HPLC on reversed phase columns (EEC directive 79/831 Annex V.A8)
Type: physicochemical
Conditions: not given
Method: The abbreviations and numerations of the substituent positions used in the context of the present invention and in the following Tables are explained in detail in the section Examples hereinafter. Also, the LogP values indicated in the following Tables are explained in detail in the section Examples hereinafter. In case LogP values for different diastereoisomers of a specific compound are […], said LogP values are […] by a “+”. […] Measurement of LogP values was performed according to EEC directive 79/831 Annex V.A8 by HPLC (High Performance Liquid Chromatography) on reversed phase columns with the following methods: […] Lambda-max-values were determined using UV-spectra from 200 nm to 400 nm and the peak values of the chromatographic signals

LogP	LogP [a]	LogP [b]	Compound
1.49[a]	–	–	Cc1c(N)nsc1C(=O)NCc1c(F)cccc1F [I-146]
4.39[a]	–	–	COc1ccc(CNc2nsc(C(=O)NC3CC34CCCCC4)c2Cl)cc1 (centres unmarked) [I-1548]
2.03[a]	–	–	Nc1nsc(C(=O)NCc2cc(F)cc(F)c2F)c1Cl [I-130]
2.18[a]	–	–	Cc1ccc(CNC(=O)c2snc(N)c2Cl)c(F)c1 [I-164]
2.99[a]	–	–	CC(=O)N(C(C)=O)c1nsc(C(=O)NCc2ccc(Cl)cc2)c1Cl [I-571]
2.05[a]	–	–	Cc1cccc(C)c1NC(=O)c1snc(N)c1Cl [I-924]
2.25[a]	–	–	CC(C)CN(C(=O)c1snc(N)c1Cl)C1CC1 [I-902]
5.59[a]	–	–	O=C(c1cc(N(Cc2ccccc2)Cc2ccccc2)ns1)N(Cc1cc(Cl)ccc1F)C1CC1 [I-992]
3.90[a]	–	–	COc1ccc(CNc2nsc(C(=O)NC3Cc4ccccc4C3)c2Cl)cc1 [I-1248]
1.46[a]	–	–	Nc1cc(C(=O)NCc2cccc(F)c2)sn1 [I-304]
4.89[a]	–	–	CCC1(CNC(=O)c2snc(NCc3ccc(OC)cc3)c2Cl)CCCCC1 [I-824]
4.15[a]	–	–	COc1ccc(CNc2nsc(C(=O)NCc3ccc(OC(F)(F)F)cc3)c2Cl)cc1 [I-1242]
1.37[a]	–	–	Nc1nsc(C(=O)NCC2CCCCC2)c1N [I-1539]
2.62[a]	–	–	Nc1nsc(C(=O)NCc2ccc(Cl)cc2Cl)c1Cl [I-018]
3.37[a]	–	–	Nc1nsc(C(=O)N(Cc2ccc(Cl)cc2Cl)C2CC2)c1Cl [I-209]
–	2.08	2.03	Nc1nsc(C(=O)N2CCc3ccccc32)c1Cl [II-029]
4.10[a]	–	–	COc1ccc(CNc2nsc(C(=O)N(c3cc(F)cc(F)c3)C3CC3)c2Cl)cc1 [I-918]
3.41[a]	–	–	COc1ccc(CNc2nsc(C(=O)NC3(C#N)CCCC3C)c2Cl)cc1 (centres unmarked) [I-1220]
2.40[a]	–	–	Nc1nsc(C(=O)NCC2CCCCC2)c1Cl [I-002]
2.80[a]	–	–	COc1ccc(CNc2nsc(C(=O)NC3CCOCC3C)c2Cl)cc1 (centres unmarked) [I-1336]
–	2.72	2.66	COc1ccc(CNc2nsc(C(=O)N3CCCC3)c2Cl)cc1 [II-102]
2.88[a]	–	–	Nc1nsc(C(=O)NCc2cc(Cl)ccc2C(F)(F)F)c1Cl [I-327]

LogP	LogP [a]	LogP [b]	Compound
5.03[a]	–	–	O=C(NCCc1ncc(C(F)(F)F)cc1Cl)c1cc(N(Cc2ccccc2)Cc2ccccc2)ns1 [I-904]
1.88[a]	–	–	Nc1nsc(C(=O)NCc2ccccc2F)c1C1CC1 [I-361]
3.09[a]	–	–	CCn1cc(CNC(=O)c2snc(NCc3ccc(OC)cc3)c2Cl)c(C(F)F)n1 [I-1198]
6.48[a]	–	–	CC(C)N(Cc1ccc(Cl)cc1Cl)C(=O)c1cc(N(Cc2ccccc2)Cc2ccccc2)ns1 [I-941]
5.25[a]	–	–	CCCC(c1ccccc1)N(C(=O)c1snc(NCc2ccc(OC)cc2)c1Cl)C1CC1 (centres unmarked) [I-899]
2.57[a]	–	–	CCn1nc(C)c(CNC(=O)c2snc(NCc3ccc(OC)cc3)c2Cl)c1C [I-1214]
2.30[a]	–	–	Nc1nsc(C(=O)NC2CCc3ccccc32)c1Cl (centres unmarked) [I-140]
1.54[a]	–	–	Nc1cc(C(=O)NCc2ccc(F)c(F)c2)sn1 [I-166]
3.46[a]	–	–	COc1ccc(CNc2nsc(C(=O)NC(C)c3nc(C(C)C)no3)c2Cl)cc1 (centres unmarked) [I-1332]
2.75[a]	–	–	Nc1nsc(C(=O)Nc2cccc3c2CCC3)c1Cl [I-926]
3.11[a]	–	–	Nc1cc(C(=O)N(Cc2cc(Cl)cc(C(F)(F)F)c2)C2CC2)sn1 [I-970]
2.16[a]	–	–	Nc1nsc(C(=O)NCc2ccc(Cl)cc2)c1Cl [I-020]
5.45[a]	–	–	O=C(NCc1ccccc1F)c1snc(N(Cc2ccccc2)Cc2ccccc2)c1-c1ccc(F)cc1 [I-320]
2.02[a]	–	–	CCOC(=O)C1CCC(NC(=O)c2snc(N)c2Cl)CC1 (centres unmarked) [I-844]
2.35[a]	–	–	Cc1ccc(NC(=O)c2cc(N)ns2)cc1Cl [I-920]
2.86[a]	–	–	O=C(NC1CCCC1c1ccccc1)c1snc(NC(=O)C2CC2)c1Cl (centres unmarked) [I-297]
0.96[a]	–	–	COc1ccc(CNC(=O)c2snc(N)c2C)cn1 [I-136]
1.31[a]	–	–	COc1c(N)nsc1C(=O)NCC1CCCCO1 (centres unmarked) [I-734]
1.54[a]	–	–	CCC(=O)Nc1nsc(C(=O)NCc2ccc(C#N)cc2)c1Cl [I-811]
–	2.17^[a]	–	O=C(NCc1ccc(Cl)cc1)c1snc(N=CN2CCCC2)c1Cl [II-030]
6.06[a]	–	–	O=C(NCc1ncc(C(F)(F)F)cc1Cl)c1snc(N(Cc2ccccc2)Cc2ccccc2)c1Br [I-200]
–	2.07^[a]	–	CCCS(CC)=Nc1nsc(C(=O)NCC2CCCCC2)c1F (centres unmarked) [II-093]

LogP	LogP [a]	LogP [b]	Compound
–	1.57^[a]	–	CS(C)=Nc1nsc(C(=O)NCc2ccc(F)c(F)c2F)c1Cl [II-047]
1.51[a]	–	–	Nc1nsc(C(=O)NCC2(O)CCCCC2)c1Cl [I-138]
4.41[a]	–	–	COc1ccc(CNc2nsc(C(=O)NCc3ccc(Oc4ccccc4)cc3)c2Cl)cc1 [I-221]
1.78[a]	–	–	Nc1cc(C(=O)NCc2cccc(Cl)c2)sn1 [I-281]
2.50[a]	–	–	CCC(=O)Nc1nsc(C(=O)NCC2CCCCC2)c1Cl [I-109]
2.59[a]	–	–	Nc1nsc(C(=O)NCCc2ccccc2)c1-c1ccc(F)cc1 [I-994]
–	4.24	4.15	COc1ccc(CNc2nsc(C(=O)N3CCCc4cc(C)ccc43)c2Cl)cc1 [II-099]
2.80[a]	–	–	CC(C)N(C(=O)c1snc(NC(=O)C(C)(C)C)c1Cl)C(C)C [I-974]
–	5.92^[a]	–	O=C(NCCC1CCCCC1)c1snc(N=C(c2ccccc2)c2ccccc2)c1Cl [II-083]
3.62[a]	–	–	COc1ccc(CNc2nsc(C(=O)Nc3ccccc3C#N)c2Cl)cc1 [I-881]
–	5.07	4.94	CC1(C)C2CCC1(C)C(NC(=O)c1snc(Cl)c1Cl)C2 (centres unmarked) [E-II-022]
2.53[a]	–	–	Nc1nsc(C(=O)NCC23CCC(CC2)C3)c1Cl [I-822]
–	2.43	2.36	Cc1cccc2c1N(C(=O)c1snc(N)c1Cl)CCC2 [II-021]
–	3.72^[a]	–	COc1ccc(CNc2nsc(C(=O)N3CCCc4cc(OC)ccc43)c2Cl)cc1 [II-063]
1.51[a]	–	–	Nc1cc(C(=O)NCc2c(F)ccc(F)c2F)sn1 [I-165]
3.48[a]	–	–	Nc1nsc(C(=O)NC2CCCC3CCCCC32)c1Cl (centres unmarked) [I-622]
4.04[a]	–	–	COc1ccc(CNc2nsc(C(=O)NCC3CCCC3)c2Cl)cc1 [I-044]
4.44[a]	–	–	COc1ccc(CNc2nsc(C(=O)NCCC3=CCCCC3)c2Cl)cc1 [I-1266]
2.07[a]	–	–	Nc1nsc(C(=O)Nc2ccc(F)cc2F)c1Cl [I-864]
2.94[a]	–	–	COc1ccc(CNc2nsc(C(=O)NCc3cccc(C(C)C)n3)c2Cl)cc1 [I-1274]
1.68[a]	–	–	N#Cc1ccc(CNC(=O)c2snc(NC(=O)C(F)F)c2Cl)cc1 [I-813]
1.27[a]	–	–	Cc1nonc1NC(=O)c1snc(N)c1Cl [I-1361]

LogP	LogP [a]	LogP [b]	Compound
5.97[a]	–	–	CCC(C)C(C)N(C(=O)c1cc(N(Cc2ccccc2)Cc2ccccc2)ns1)C1CC1 (centres unmarked) [I-938]
1.41[a]	–	–	N#Cc1cccc(CNC(=O)c2snc(N)c2Cl)c1 [I-1289]
4.69[a]	–	–	COc1ccc(CNc2nsc(C(=O)NC3CCCCC3c3ccccc3)c2Cl)cc1 (centres unmarked) [I-267]
2.21[a]	–	–	N#CC(NC(=O)c1snc(N)c1Br)C1CCCCC1 (centres unmarked) [I-833]
4.69[a]	–	–	COc1ccc(CNc2nsc(C(=O)NCC3(C)CCCCC3)c2Cl)cc1 [I-079]
1.44[a]	–	–	N#Cc1ccc(CNC(=O)c2snc(N)c2Cl)cc1 [I-783]
4.09[a]	–	–	COc1ccc(CNc2nsc(C(=O)N(CC(C)C)C3CC3)c2Cl)cc1 [I-900]
4.33[a]	–	–	COc1ccc(CNc2nsc(C(=O)NCC3(OC)CCC(C)CC3)c2Cl)cc1 (centres unmarked) [I-823]
–	5.02	4.96	CC1(C)C2CCC1(C)C(NC(=O)c1snc(Cl)c1Cl)C2 (centres unmarked) [E-II-017]
4.56[a]	–	–	COc1ccc(CNc2nsc(C(=O)NCC3CCC(C)CC3)c2Cl)cc1 (centres unmarked) [I-675]
2.73[a]	–	–	Nc1nsc(C(=O)NCc2ccc(Cl)cc2)c1-c1ccc(F)cc1 [I-336]
2.92[a]	–	–	Nc1nsc(C(=O)NCCC2CCCCC2)c1Cl [I-850]
–	2.23^[a]	–	CCCS(C)=Nc1nsc(C(=O)NCC2CCCCC2)c1Cl (centres unmarked) [II-089]
4.44[a]	–	–	COc1ccc(CNc2nsc(C(=O)N(Cc3c(F)cccc3Cl)C3CC3)c2Cl)cc1 [I-933]
4.02[a]	–	–	COc1ccc(CNc2nsc(C(=O)N(c3ccc(F)cc3F)C3CC3)c2Cl)cc1 [I-921]
3.29[a]	–	–	Nc1nsc(C(=O)N(Cc2cc(Cl)ccc2Br)C2CC2)c1Cl [I-365]
5.41[a]	–	–	COc1ccc(CNc2nsc(C(=O)NC3CCc4ccc(C(C)(C)C)cc4C3)c2Cl)cc1 (centres unmarked) [I-1308]
2.23[a]	–	–	COc1cccc(CNC(=O)c2snc(N)c2Cl)c1Cl [I-465]
4.85[a]	–	–	O=C(NCc1ccc(Cl)cc1)c1cc(N(Cc2ccccc2)Cc2ccccc2)ns1 [I-314]
1.66[a]	–	–	Nc1nsc(C(=O)NCC2CCC(F)(F)CC2)c1F [I-1297]
0.36[a]	–	–	Nc1cc(C(=O)NCC2CCC(O)C2)sn1 (centres unmarked) [I-775]
2.89[a]	–	–	CCC(=O)N(C(=O)CC)c1nsc(C(=O)NCc2ccc(C#N)cc2)c1Cl [I-810]

Compound	LogP	LogP [a]	LogP [b]
C[C@H](NC(=O)c1snc(N=CN(C)C)c1Cl)C1CCCCC1 [II-025]	–	3.13^[a]	–
C[C@H](NC(=O)c1snc(N=CN2CCCC2)c1Cl)C1CCCCC1 [II-024]	–	2.73^[a]	–

Same assay, conditions: HPLC LC-UV, acidic range, 0.1% formic acid in water and acetonitrile as eluent

Compound	chromatographic logP
O=C(O)c1snc(N(Cc2ccccc2)Cc2ccccc2)c1C(F)F [E-VIII-009, 3-(dibenzylamino)-4-(difluoromethyl)-1,2-thiazole-5-carboxylic acid]	3.78
c1ccc(CN(Cc2ccccc2)c2ccsn2)cc1 [Z-A-001, N,N-dibenzyl-1,2-thiazol-3-amine]	4.13
